In US20170312300A1, “Methods for Treating Cancer” (Fundacion Centro National de Investigaciones Oncolgicas …, priority 2014, published 2017):

What was measured:
[1] = system: model of hepatic carcinogenesis; settings: cited from earlier work
hepatocarcinogenesis = settings: cited from earlier work
advanced HCC = settings: patients with advanced HCC; cited from earlier work
[2] = biological target: T1, kynurenine 3-monooxygenase (KMO) (Mus musculus, UniProt Q91WN4); assay: Ro-61-8048 treatment of C57BL/6 mice previously fed DDC diet (liver NAD+ and DNA damage); assay type: in vivo; settings: 25 mg/Kg intraperitoneally for 3 consecutive days after 4 days DDC diet, vs DMSO
T1 construct: supplying C57BL/6 mice for 4 days with a DDC-supplemented diet; from tissue; host or cells: liver of living C57BL/6 mice (in vivo dosing)
Method: Freshly harvested murine livers were fixed immediately in 10% buffered formalin solution overnight and embedded in paraffin. Sections of 3 μm were deparafinized, rehydrated and antigen retrieved by using 1M sodium citrate buffer (pH 6.5). After blocking endogenous peroxidase using 3% H2O2 (in methanol) for 5 min, sections were then blocked with 1:200 goat serum 5% BSA/PBST for 1 h at RT. Furthermore, sections were incubated with primary antibodies overnight at 4° C., after which Vectastain ABC kit (Vector Laboratories, Inc) was used, following manufacturer's instructions. Sections were then incubated with 33-diaminobenzidinetetracloride (DBA) and counterstained with hematoxylin. In the case of immunofluorescence, sections were incubated with PE-conjugated secondary antibodies (1:500) for 1 h at RT, followed by DAPI staining. Quantification was performed either by counting the number of positive cells in a minimum of six 10× or 20× microscopic fields, or the percentage of positive area using Color Deconvolution plug-in in Image J.
NAD+ levels were determined using a commercial kit (Enzychrom, BioAssays Systems, CA), and as previously described (Canto et al., 2012, Cell Metab 15, 838-847). NAD+/NADH assay kit is based on a […] cycling reaction, in which the formed NADH reduces a formazan (MTT) reagent. […]

T1 sequence (Q91WN4 whole entry): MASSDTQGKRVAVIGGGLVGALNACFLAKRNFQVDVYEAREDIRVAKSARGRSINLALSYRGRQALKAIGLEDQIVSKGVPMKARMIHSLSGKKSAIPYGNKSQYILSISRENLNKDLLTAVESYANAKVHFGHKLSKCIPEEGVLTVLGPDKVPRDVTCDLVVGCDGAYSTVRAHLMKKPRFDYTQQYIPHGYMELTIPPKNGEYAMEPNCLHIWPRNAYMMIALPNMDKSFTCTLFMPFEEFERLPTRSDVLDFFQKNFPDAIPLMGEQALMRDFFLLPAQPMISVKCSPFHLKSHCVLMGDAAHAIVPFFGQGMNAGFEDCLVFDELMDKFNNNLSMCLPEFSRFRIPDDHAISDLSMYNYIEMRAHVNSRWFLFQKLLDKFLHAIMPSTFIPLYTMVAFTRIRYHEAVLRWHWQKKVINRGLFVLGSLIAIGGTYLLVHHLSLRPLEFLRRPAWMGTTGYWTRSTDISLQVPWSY

NC(=O)c1cccnc1 [nicotinamide]
number of foci, their diameter or proportion of liver occupied by loci [1]: no effect | hepatocarcinogenesis (hepatocarcinogenesis; both in vitro and in vivo): effectively inhibits | formation of loci and adenomas (hepatocarcinogenesis; in vivo): lower formation

CNC(=O)c1cc(Oc2ccc(NC(=O)Nc3ccc(Cl)c(C(F)(F)F)c3)cc2)ccn1 [sorafenib]
prolongation of survival compared to placebo (advanced HCC): around 2 months

COc1ccc(S(=O)(=O)Nc2nc(-c3cccc([N+](=O)[O-])c3)cs2)cc1OC [Ro-61-8048]
DNA damage foci (γH2AX) in livers [2]: significantly elevated | NAD+ concentrations in livers [2]: reduced
